Assays:
Assay type in all cases: in vivo
kochia (Kochia scoparia) [1] = assay: Test A postemergence application, visual injury rating; conditions: 0 to 100 scale, 0 no effect, 100 complete control
Method in brief: (§1)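 Compounds in a surfactant-containing solvent were applied as a directed soil spray preemergence, or postemergence to plants 2-10 cm tall at the one- to two-leaf stage, in loam-sand blend. After about 10 d in the greenhouse, injury was rated visually against untreated controls on a 0-100 scale (100 = complete control).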

[2] = test system: galium (catchweed bedstraw, Galium aparine); assay: as above; conditions: 0 to 100 scale, 0 no effect, 100 complete control
Method in brief: as §1

[3] = test system: foxtail, giant (giant foxtail, Setaria faberii); assay: as above; conditions: 0 to 100 scale, 0 no effect, 100 complete control
Method in brief: as §1

[4] = test system: wheat (Triticum aestivum); assay: as above; conditions: 0 to 100 scale, 0 no effect, 100 complete control
Method in brief: as §1

[5] = test system: pigweed (Amaranthus retroflexus); assay: as above; conditions: 0 to 100 scale, 0 no effect, 100 complete control
Method in brief: as §1

[6] = test system: blackgrass (Alopecurus myosuroides); assay: as above; conditions: 0 to 100 scale, 0 no effect, 100 complete control
Method in brief: as §1

corn (Zea mays) = assay: as above; conditions: 0 to 100 scale, 0 no effect, 100 complete control
Method in brief: as §1

[7] = test system: barnyardgrass (Echinochloa crus-galli); assay: as above; conditions: 0 to 100 scale, 0 no effect, 100 complete control
Method in brief: as §1

[8] = test system: ryegrass, It. (Italian ryegrass, Lolium multiflorum); assay: as above; conditions: 0 to 100 scale, 0 no effect, 100 complete control
Method in brief: as §1

[9] = test system: ragweed (common ragweed, Ambrosia elatior); assay: as above; conditions: 0 to 100 scale, 0 no effect, 100 complete control
Method in brief: as §1

kochia (Kochia scoparia) [10] = assay: Test A preemergence, directed soil spray, visual injury rating; conditions: 0 is no effect, 100 is complete control
Method in brief: as §1

[11] = test system: foxtail, giant (giant foxtail, Setaria faberii); assay: as above; conditions: 0 is no effect, 100 is complete control
Method in brief: as §1

[12] = test system: pigweed (Amaranthus retroflexus); assay: as above; conditions: 0 is no effect, 100 is complete control
Method in brief: as §1

[13] = test system: barnyardgrass (Echinochloa crus-galli); assay: as above; conditions: 0 is no effect, 100 is complete control
Method in brief: as §1

[14] = test system: ryegrass, It. (Italian ryegrass, Lolium multiflorum); assay: as above; conditions: 0 is no effect, 100 is complete control
Method in brief: as §1

[15] = test system: ragweed (common ragweed, Ambrosia elatior); assay: as above; conditions: 0 is no effect, 100 is complete control
Method in brief: as §1

[16] = test system: sedge, umbrella (small-flower umbrella sedge, Cyperus difformis); assay: Test B flooded paddy test, visual rating; conditions: Flood, 250 g ai/ha, applied to paddy water, rated after 13 to 15 d
Method in brief: (§2)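 Plants grown to the 2-leaf stage. At treatment, pots were flooded to 3 cm above the soil, compound was applied directly to the paddy water, and that depth was held throughout. After 13 to 15 d in the greenhouse, response was rated visually against controls on a 0 (no effect) to 100 (complete control) scale.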

[17] = test system: ducksalad (Heteranthera limosa); assay: Test B flooded paddy test, visual rating; conditions: Flood, 250 g ai/ha, applied to paddy water, rated after 13 to 15 d
Method in brief: as §2

rice (Oryza sativa) = assay: Test B flooded paddy test, visual rating; conditions: Flood, 250 g ai/ha, applied to paddy water, rated after 13 to 15 d
Method in brief: as §2

[18] = test system: barnyardgrass (Echinochloa crus-galli); assay: Test B flooded paddy test, visual rating; conditions: Flood, 250 g ai/ha, applied to paddy water, rated after 13 to 15 d
Method in brief: as §2

| Compound | Kochia plant response rating (kochia (Kochia scoparia) [1]; 31 g ai/ha) | Kochia plant response rating (kochia (Kochia scoparia) [1]; 125 g ai/ha) | Galium plant response rating ([2]; 31 g ai/ha) | Galium plant response rating ([2]; 125 g ai/ha) | Foxtail, Giant plant response rating ([3]; 31 g ai/ha) | Foxtail, Giant plant response rating ([3]; 125 g ai/ha) | Wheat plant response rating ([4]; 31 g ai/ha) | Wheat plant response rating ([4]; 125 g ai/ha) | Pigweed plant response rating ([5]; 31 g ai/ha) | Pigweed plant response rating ([5]; 125 g ai/ha) | Blackgrass plant response rating ([6]; 31 g ai/ha) | Blackgrass plant response rating ([6]; 125 g ai/ha) | Corn plant response rating (corn (Zea mays); 31 g ai/ha) | Corn plant response rating (corn (Zea mays); 125 g ai/ha) | Barnyardgrass plant response rating ([7]; 31 g ai/ha) | Barnyardgrass plant response rating ([7]; 125 g ai/ha) | Ryegrass, It. plant response rating ([8]; 31 g ai/ha) | Ryegrass, It. plant response rating ([8]; 125 g ai/ha) | Ragweed plant response rating ([9]; 31 g ai/ha) | Ragweed plant response rating ([9]; 125 g ai/ha) | also measured |
| --- | --- | --- | --- | --- | --- | --- | --- | --- | --- | --- | --- | --- | --- | --- | --- | --- | --- | --- | --- | --- | --- |
| CC(=O)Oc1c(C)nn(C)c(=O)c1-c1ccc(Cl)c2cc(C)oc12 [Compound 42] | 0 | 0 | 90 | 90 | 10 | 30 | 0 | 0 | 30 | 50 | 20 | 50 | 0 | 10 | 10 | 40 | 70 | 90 | 20 | 10 | Plant response rating (0 to 100 scale), Kochia (kochia (Kochia scoparia) [10]; 31 g ai/ha): 0; Plant response rating (0 to 100 scale), Kochia (kochia (Kochia scoparia) [10]; 125 g ai/ha): 0; Plant response rating (0 to 100 scale), Foxtail, Giant ([11]; 31 g ai/ha): 10; Plant response rating (0 to 100 scale), Foxtail, Giant ([11]; 125 g ai/ha): 50; Plant response rating (0 to 100 scale), Pigweed ([12]; 31 g ai/ha): 0; Plant response rating (0 to 100 scale), Pigweed ([12]; 125 g ai/ha): 40; Plant response rating (0 to 100 scale), Barnyardgrass ([13]; 31 g ai/ha): 10; Plant response rating (0 to 100 scale), Barnyardgrass ([13]; 125 g ai/ha): 60; Plant response rating (0 to 100 scale), Ryegrass, It. ([14]; 31 g ai/ha): 60; Plant response rating (0 to 100 scale), Ryegrass, It. ([14]; 125 g ai/ha): 90; Plant response rating (0 to 100 scale), Ragweed ([15]; 31 g ai/ha): 30; Plant response rating (0 to 100 scale), Ragweed ([15]; 125 g ai/ha): 40; Sedge, Umbrella plant response rating (0 to 100 scale, 0 is no effect, 100 is complete control) [16]: 60; Ducksalad plant response rating (0 to 100 scale, 0 is no effect, 100 is complete control) [17]: 80; Rice plant response rating (0 to 100 scale, 0 is no effect, 100 is complete control) (rice (Oryza sativa)): 0; Barnyardgrass plant response rating (0 to 100 scale, 0 is no effect, 100 is complete control) [18]: 0 |
| CCC(=O)Oc1c(C)nn(C)c(=O)c1-c1c(C)ccc2cc(C)oc12 [Compound 22] | 70 | 90 | 70 | 90 | 30 | 70 | 0 | 0 | 60 | 90 | 30 | 80 | 0 | 0 | 10 | 10 | 70 | 80 | 70 | 90 | Plant response rating (0 to 100 scale), Kochia (kochia (Kochia scoparia) [10]; 31 g ai/ha): 30; Plant response rating (0 to 100 scale), Kochia (kochia (Kochia scoparia) [10]; 125 g ai/ha): 90; Plant response rating (0 to 100 scale), Foxtail, Giant ([11]; 31 g ai/ha): 0; Plant response rating (0 to 100 scale), Foxtail, Giant ([11]; 125 g ai/ha): 50; Plant response rating (0 to 100 scale), Pigweed ([12]; 31 g ai/ha): 100; Plant response rating (0 to 100 scale), Pigweed ([12]; 125 g ai/ha): 100; Plant response rating (0 to 100 scale), Barnyardgrass ([13]; 31 g ai/ha): 0; Plant response rating (0 to 100 scale), Barnyardgrass ([13]; 125 g ai/ha): 10; Plant response rating (0 to 100 scale), Ryegrass, It. ([14]; 31 g ai/ha): 30; Plant response rating (0 to 100 scale), Ryegrass, It. ([14]; 125 g ai/ha): 80; Plant response rating (0 to 100 scale), Ragweed ([15]; 31 g ai/ha): 20; Plant response rating (0 to 100 scale), Ragweed ([15]; 125 g ai/ha): 80; Sedge, Umbrella plant response rating (0 to 100 scale, 0 is no effect, 100 is complete control) [16]: 0; Ducksalad plant response rating (0 to 100 scale, 0 is no effect, 100 is complete control) [17]: 0; Rice plant response rating (0 to 100 scale, 0 is no effect, 100 is complete control) (rice (Oryza sativa)): 0; Barnyardgrass plant response rating (0 to 100 scale, 0 is no effect, 100 is complete control) [18]: 0 |
